Laboratory results taken from article PMC10620989, “Going beyond Binary: Rapid Identification of Protein–Protein Interaction Modulators Using a Multifragment Kinetic Target-Guided Synthesis Approach” (Journal of Medicinal Chemistry, 2023).

What was measured:
Bcl-XL = Bcl-XL (Homo sapiens, UniProt Q07817); assay: Multifragment KTGS incubation with Bcl-XL (9 TA x 9 SZ in one well), LC-MS/MS; conditions: 81 combinations in one well, 5 μM Bcl-XL, phosphate buffer pH 7.4, 8 h
Mcl-1 [1] = molecular target: T1, Mcl-1 (Mus musculus, UniProt P97287); assay: Multifragment KTGS screen against Mcl-1 (5 TA x 38 SZ per well), LC-MS/MS; conditions: multifragment KTGS, 190 combinations per well, 10 μM Mcl-1, 20 μM each fragment, pH 7.4, 37 °C, 10 h; peak area with protein / without protein
GST-Bcl-XL [2] = molecular target: T2, GST-Bcl-XL (Homo sapiens, UniProt Q07817); assay: Fluorescence polarization assay, GST-Bcl-XL / fluorescein-labeled Bak BH3 peptide; assay type: binding; conditions: FP, GST-Bcl-XL and fluorescein-labeled Bak BH3 peptide; ND = not detected
[3] = molecular target: GST-tagged mouse Mcl-1-(152–309) (Mus musculus, UniProt P97287); assay: Fluorescence polarization competitive binding assay, GST-Mcl-1 / FITC-Bim-BH3; conditions: FP; for IC50: GST-Mcl-1 and fluorescein-labeled Bim BH3 peptide, read-out: IC50 on Mcl-1; for inhibition at 50 µM: compound at 50 µM
Mcl-1 [4] = molecular target: T1, Mcl-1; assay: Binary KTGS incubation (1 TA x 1 SZ) with Mcl-1, LC-MS/MS; conditions: binary incubation mixtures with and without Mcl-1
GST-Bcl-XL [5] = molecular target: T2, GST-Bcl-XL; parameters: method as in PMID 21892513; conditions: 50 μM; ref 15b; cited from earlier work

T2 sequence (Q07817 whole entry): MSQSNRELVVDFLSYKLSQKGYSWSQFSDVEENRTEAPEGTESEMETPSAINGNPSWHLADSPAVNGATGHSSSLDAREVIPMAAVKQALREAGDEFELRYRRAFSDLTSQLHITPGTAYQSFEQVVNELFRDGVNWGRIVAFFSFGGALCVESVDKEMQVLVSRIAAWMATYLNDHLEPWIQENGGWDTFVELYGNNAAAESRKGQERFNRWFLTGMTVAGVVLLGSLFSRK
Chain of Bcl-XL (Q07817 whole entry, species assumed, the tested form may be a part): as the sequence (Q07817 whole entry) above
Chain of GST-tagged mouse Mcl-1-(152–309) (P97287 152-309): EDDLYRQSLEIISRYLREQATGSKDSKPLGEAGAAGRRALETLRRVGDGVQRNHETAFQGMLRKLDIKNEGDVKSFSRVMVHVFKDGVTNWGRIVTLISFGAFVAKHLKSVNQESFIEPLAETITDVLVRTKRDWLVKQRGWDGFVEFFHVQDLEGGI
T1 sequence (P97287 whole entry, the tested form may be a part): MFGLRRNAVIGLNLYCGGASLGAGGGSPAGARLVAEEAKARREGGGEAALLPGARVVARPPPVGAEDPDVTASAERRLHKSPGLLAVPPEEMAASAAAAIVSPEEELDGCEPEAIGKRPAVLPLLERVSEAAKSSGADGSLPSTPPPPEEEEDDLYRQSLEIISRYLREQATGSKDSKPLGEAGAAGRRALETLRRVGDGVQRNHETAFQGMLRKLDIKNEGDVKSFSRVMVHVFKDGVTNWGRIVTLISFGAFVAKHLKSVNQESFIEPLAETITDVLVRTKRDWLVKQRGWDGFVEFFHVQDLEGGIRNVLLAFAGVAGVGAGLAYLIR

Row | Amplification coefficient (Bcl-XL) | IC50 on Bcl-XL (GST-Bcl-XL [2]) | Compound | Amplification coefficient 5TA x 38SZ (Mcl-1 [1]) | IC50 (GST-Bcl-XL [2]) [µM] | IC50 [3] [µM] | inhibition at 50 µM [3] [%] | Amplification coefficient 1TA x 1SZ (Mcl-1 [4]) | inhibition of the Bcl-XL/Bak BH3 interaction (GST-Bcl-XL [5]) [%]
1 | 15.0 | – | CC1(C)CCN(c2ccc(C(=O)NS(=O)(=O)c3ccc(NCCSc4ccccc4)c([N+](=O)[O-])c3)cc2)CC1 [SZ4TA2, reference compound] | – | – | – | – | – | –
2 | 15.2 | – | CC1(C)CCN(c2ccc(C(=O)NS(=O)(=O)c3ccc4ccc(S(=O)(=O)NCCSc5ccccc5)cc4c3)cc2)CC1 [SZ7TA2] | – | – | – | – | – | –
3 | 7.6 | – | COc1cc(OC)cc(C(=O)NS(=O)(=O)c2ccc(CN(CCSc3ccccc3)Cc3ccc(S(=O)(=O)N=[N+]=[N-])cc3)cc2)c1 [SZ9TA5, O=C(NS(C1=CC=C(CN(CC2=CC=C(S(=O)(N=[N+]=[N-])=O)C=C2)CCSC3=CC=CC=C3)C=C1)(=O)=O)C4=CC(OC)=CC(OC)=C4] | 8 | – | 8.1 | 99 | 4.5 | –
4 | – | below the detectable threshold | O=C(Cn1c2ccccc2c2ccccc21)NS(=O)(=O)c1ccc(CN(CCSc2ccccc2)Cc2ccc3c(c2)OCO3)cc1 [SZ31TA15, O=C(NS(C1=CC=C(CN(CC2=CC(OCO3)=C3C=C2)CCSC4=CC=CC=C4)C=C1)(=O)=O)CN5C(C=CC=C6)=C6C7=C5C=CC=C7] | 72 | – | 14 | 80.7 | 6 | –
5 | – | below the detectable threshold | COc1ccc(Cc2ccc(C(=O)NS(=O)(=O)c3ccc(CN(CCSc4ccccc4)Cc4ccc5c(c4)OCO5)cc3)cc2)c(OC)c1OC [SZ31TA24, O=C(NS(C1=CC=C(CN(CC2=CC(OCO3)=C3C=C2)CCSC4=CC=CC=C4)C=C1)(=O)=O)C5=CC=C(CC6=C(OC)C(OC)=C(OC)C=C6)C=C5] | 7 | – | 20 | 82.4 | 15 | –
6 | – | – | Cc1noc(C)c1-c1ccc(S(=O)(=O)NC(=O)c2ccc(CN3C(=O)C(c4ccc(F)cc4F)=C(c4ccc(F)cc4F)C3=O)cc2)cc1 [SZ32TA42, O=C(NS(C1=CC=C(C2=C(C)ON=C2C)C=C1)(=O)=O)C3=CC=C(CN4C(C(C5=C(F)C=C(F)C=C5)=C(C6=CC=C(F)C=C6F)C4=O)=O)C=C3] | 10 | 43.8 | 19.1 | 91 | 6 | –

Row | Compound | Amplification coefficient (Bcl-XL) | IC50 on Bcl-XL (GST-Bcl-XL [2]) | Amplification coefficient 5TA x 38SZ (Mcl-1 [1]) | IC50 (GST-Bcl-XL [2]) [µM] | IC50 [3] [µM] | inhibition at 50 µM [3] [%] | Amplification coefficient 1TA x 1SZ (Mcl-1 [4]) | inhibition of the Bcl-XL/Bak BH3 interaction (GST-Bcl-XL [5]) [%]
7 | [N-]=[N+]=NS(=O)(=O)c1ccc(CN(CCSc2ccccc2)Cc2ccc(S(=O)(=O)NC(=O)c3ccccc3)cc2)cc1 [SZ9TA1, O=C(NS(C1=CC=C(CN(CC2=CC=C(S(=O)(N=[N+]=[N-])=O)C=C2)CCSC3=CC=CC=C3)C=C1)(=O)=O)C4=CC=CC=C4] | 7.3 | – | 14 | 28.8 | 19.8 | 97.3 | 4 | –
8 | [N-]=[N+]=NS(=O)(=O)c1ccc(CN(CCSc2ccccc2)Cc2ccc(S(=O)(=O)NC(=O)c3cccc4ccccc34)cc2)cc1 [SZ9TA7, O=C(NS(C1=CC=C(CN(CC2=CC=C(S(=O)(N=[N+]=[N-])=O)C=C2)CCSC3=CC=CC=C3)C=C1)(=O)=O)C4=C(C=CC=C5)C5=CC=C4] | 7.1 | – | 23 | 66.3 | 8.2 | 94.1 | 6 | 45
